From US5675003A, “3-ammoniopropenyl cephalosporin compounds as antibacterial agents” (Korea Institute of Science and Technology, priority 1995, dated 1997)
In brackets after ≈: the same amount, converted by molar mass.

How the values were obtained:
Experiment in all cases: MIC, in vitro agar dilution method
Type in all cases: cell-based
[1] = system: Streptococcus pyogenes 308 A; conditions: S.p.1, Streptococcus pyogenes 308 A; agar dilution; read-out: MIC
Procedure: (§1) The MICs of the new cephalosporins of the present invention against Gram-positive and Gram-negative bacteria were determined by an in vitro agar dilution method. For comparisons, the MIC values of ceftazidime are also listed.
(§2) In vitro antimicrobial activity of the cephalosporins (l) (MIC:
S.p.1, Streptococcus pyogenes 308 A;

[2] = system: Streptococcus pyogenes A 77; conditions: A77; S.p.2, Streptococcus pyogenes A 77; agar dilution; read-out: MIC
Procedure: as §1, §2
S.p.2, Streptococcus pyogenes A 77;

[3] = system: Streptococcus faecium MD; conditions: Enterococcus faecium; S.f., Streptococcus faecium MD; agar dilution; read-out: MIC
Procedure: as §1, §2
S.f., Streptococcus faecium MD;

[4] = system: Staphlococcus aureus SG 511; conditions: S.a.1, Staphlococcus aureus SG 511; agar dilution; read-out: MIC
Procedure: as §1, §2
S.a.1, Staphlococcus aureus SG 511;

[5] = system: Staphylococcus aureus 285; conditions: S.a.2, Staphylococcus aureus 285; agar dilution; read-out: MIC
Procedure: as §1, §2
E.c. TEM, S.a. 2, Staphylococcus aureus 285;

[6] = system: Staphylococcus aureus 503; conditions: S.a.3, Staphylococcus aureus 503; agar dilution; read-out: MIC
Procedure: as §1, §2
S.a.3, Staphylococcus aureus 503;

[7] = system: Escherichia coli O55; conditions: E.c.1, Escherichia coli O55
Procedure: as §1, §2
E.c.1, Escherichia coli O55;

[8] = system: Escherichia coli DC0; conditions: E.c.2, Escherichia coli DC0
Procedure: as §1, §2
E.c.2, Escherichia coli DC0;

[9] = system: Escherichia coli TEM; conditions: E.c.3, Escherichia coli TEM
Procedure: as §1, §2
E.c.3, Escherichia coli TEM;

[10] = system: Escherichia coli 1507 E; conditions: E.c.4, Escherichia coli 1507 E
Procedure: as §1, §2
E.c.4, Escherichia coli 1507 E;

[11] = system: E.c.5; conditions: Escherichia coli, E.c.5 (strain not defined)
Procedure: as §1

[12] = system: Pseudomonas aeruginosa 9027; conditions: P.a.1, Pseudomonas aeruginosa 9027; agar dilution; read-out: MIC
Procedure: as §1, §2
P.a.1, Pseudomonas aeruginosa 9027;

[13] = system: Pseudomonas aeruginosa 1592 E; conditions: P.a.2, Pseudomonas aeruginosa 1592 E; agar dilution; read-out: MIC
Procedure: as §1, §2
P.a.2, Pseudomonas aeruginosa 1592 E;

[14] = system: Pseudomonas eruginosa 1771; conditions: P.a.3, Pseudomonas eruginosa 1771
Procedure: as §1, §2
P.a.3, Pseudomonas eruginosa 1771;

[15] = system: Pseudomonas aeruginosa 1771 M; conditions: P.a.4, Pseudomonas aeruginosa 1771 M; agar dilution; read-out: MIC
Procedure: as §1, §2
P.a.4, Pseudomonas aeruginosa 1771 M;

[16] = system: Salmonella typhimurium; conditions: Salmonella enterica; S.t., Salmonella typhimurium; agar dilution; read-out: MIC
Procedure: as §1, §2
S.t., Salmonella typhimurium;

[17] = system: Klebsiella oxytoca 1082 E; conditions: K.o., Klebsiella oxytoca 1082 E; agar dilution; read-out: MIC
Procedure: as §1, §2
K.o., Klebsiella oxytoca 1082 E;

[18] = system: Klebsiella aerogenes 1552 E; conditions: K.a., Klebsiella aerogenes 1552 E; agar dilution; read-out: MIC
Procedure: as §1, §2
K.a., Klebsiella aerogenes 1552 E;

[19] = system: Enterobacter cloacae P 99; conditions: Enterobacter cloacae, P99
Procedure: as §1, §2
En.c.1, Enterobacter cloacae P 99;

[20] = system: Enterobacter cloacae 1321 E; conditions: En.c.2, Enterobacter cloacae 1321 E; agar dilution; read-out: MIC
Procedure: as §1, §2
En.c.2, Enterobacter cloacae 1321 E.

Compound | MIC [1] [µg/mL] | MIC [2] [µg/mL] | MIC [3] [µg/mL] | MIC [4] [µg/mL] | MIC [5] [µg/mL] | MIC [6] [µg/mL] | MIC [7] [µg/mL] | MIC [8] [µg/mL] | MIC [9] [µg/mL] | MIC [10] [µg/mL] | MIC [11] [µg/mL] | MIC [12] [µg/mL] | MIC [13] [µg/mL] | MIC [14] [µg/mL] | MIC [15] [µg/mL] | MIC [16] [µg/mL] | MIC [17] [µg/mL] | MIC [18] [µg/mL] | MIC [19] [µg/mL] | MIC [20] [µg/mL]
CO/N=C(\C(=O)N[C@@H]1C(=O)N2C(C(=O)[O-])=C(/C=C/C[N+]3(C)C[C@H](O)[C@@H](O)C3)CS[C@H]12)c1csc(N)n1 [1-b, 7β-[2-(2-Aminothiazol-4-yl)-(Z)-2-methoxyiminoacetamido]-3-[(E)-3-(3S,4S-dihydroxy-1-methyl-1-pyrrolidinio)-1-propen-1-yl]-3-cephem-4-carboxylate] | 0.013 (≈ 0.0241 µM) | 0.007 (≈ 0.013 µM) | 50 (≈ 92.8 µM) | 0.39 (≈ 0.724 µM) | 0.78 (≈ 1.45 µM) | 0.2 (≈ 0.371 µM) | 0.025 (≈ 0.0464 µM) | 0.049 (≈ 0.091 µM) | 0.025 (≈ 0.0464 µM) | 0.049 (≈ 0.091 µM) | 0.049 (≈ 0.091 µM) | 3.13 (≈ 5.81 µM) | 1.56 (≈ 2.9 µM) | 1.56 (≈ 2.9 µM) | 0.098 (≈ 0.182 µM) | 0.025 (≈ 0.0464 µM) | 0.78 (≈ 1.45 µM) | 0.025 (≈ 0.0464 µM) | 3.13 (≈ 5.81 µM) | 0.013 (≈ 0.0241 µM)
CO/N=C(\C(=O)N[C@@H]1C(=O)N2C(C(=O)[O-])=C(/C=C/C[N+]3(C)CCC(O)CC3)CS[C@H]12)c1csc(N)n1 (stereo partly drawn) [1-g, 7β-[2-(2-Aminothiazol-4-yl)-(Z)-2-methoxyiminoacetamido]-3-[(E)-3-(4-hydroxy-1-methyl-1-piperidinio)-1-propen-1-yl]-3-cephem-4-carboxylate] | 0.013 (≈ 0.0242 µM) | 0.013 (≈ 0.0242 µM) | 50 (≈ 93.2 µM) | 0.39 (≈ 0.727 µM) | 0.78 (≈ 1.45 µM) | 0.2 (≈ 0.373 µM) | 0.025 (≈ 0.0466 µM) | 0.049 (≈ 0.0913 µM) | 0.049 (≈ 0.0913 µM) | 0.098 (≈ 0.183 µM) | 0.049 (≈ 0.0913 µM) | 6.25 (≈ 11.6 µM) | 3.13 (≈ 5.83 µM) | 1.56 (≈ 2.91 µM) | 0.2 (≈ 0.373 µM) | 0.049 (≈ 0.0913 µM) | 3.13 (≈ 5.83 µM) | 0.025 (≈ 0.0466 µM) | 3.13 (≈ 5.83 µM) | 0.025 (≈ 0.0466 µM)
CO/N=C(\C(=O)N[C@@H]1C(=O)N2C(C(=O)[O-])=C(/C=C/C[N+]3(C)C[C@H](O)C[C@H]3CO)CS[C@H]12)c1csc(N)n1 (stereo partly drawn) [1-c, 7β-[2-(2-Aminothiazol-4-yl)-(Z)-2-methoxyiminoacetamido]-3-[(E)-3-(4R-hydroxy-2S-hydroxymethyl-1-methyl-1-pyrrolidinio)-1-propen-1-yl]-3-cephem-4-carboxylate] | 0.013 (≈ 0.0235 µM) | 0.004 (≈ 0.00724 µM) | 50 (≈ 90.5 µM) | 0.39 (≈ 0.706 µM) | 0.78 (≈ 1.41 µM) | 0.2 (≈ 0.362 µM) | 0.013 (≈ 0.0235 µM) | 0.049 (≈ 0.0887 µM) | 0.025 (≈ 0.0452 µM) | 0.049 (≈ 0.0887 µM) | 0.049 (≈ 0.0887 µM) | 6.25 (≈ 11.3 µM) | 3.13 (≈ 5.66 µM) | 1.56 (≈ 2.82 µM) | 0.2 (≈ 0.362 µM) | 0.025 (≈ 0.0452 µM) | 3.13 (≈ 5.66 µM) | 0.049 (≈ 0.0887 µM) | 3.13 (≈ 5.66 µM) | 0.013 (≈ 0.0235 µM)
CO/N=C(\C(=O)N[C@@H]1C(=O)N2C(C(=O)[O-])=C(/C=C/C[N+](C)(CCO)CCO)CS[C@H]12)c1csc(N)n1 [1-d] | 0.013 (≈ 0.024 µM) | 0.004 (≈ 0.0074 µM) | 50 (≈ 92.5 µM) | 0.39 (≈ 0.721 µM) | 0.78 (≈ 1.44 µM) | 0.2 (≈ 0.37 µM) | 0.013 (≈ 0.024 µM) | 0.049 (≈ 0.0906 µM) | 0.013 (≈ 0.024 µM) | 0.098 (≈ 0.181 µM) | 0.049 (≈ 0.0906 µM) | 3.13 (≈ 5.79 µM) | 1.56 (≈ 2.89 µM) | 0.78 (≈ 1.44 µM) | 0.098 (≈ 0.181 µM) | 0.025 (≈ 0.0462 µM) | 0.78 (≈ 1.44 µM) | 0.025 (≈ 0.0462 µM) | 6.25 (≈ 11.6 µM) | 0.013 (≈ 0.024 µM)
